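A five-concentration, 48-hour dose response in 96-well plates underlies each endpoint, interpolated linearly between surrounding concentrations. TGI denotes the concentration required for complete inhibition of growth.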
What was measured:
Test in all cases: DTP human tumour cell line panel, 48 h
[1] = tested on: RPMI-8226 leukemia
[2] = tested on: HCC-2998 colon
[3] = tested on: KM12 colon
[4] = tested on: LOX IMVI melanoma
[5] = tested on: BT-549 breast
[6] = tested on: SF-295 CNS
[7] = tested on: HOP-62 NSCLC
[8] = tested on: MDA-N
[9] = tested on: SR leukemia
[10] = tested on: HOP-92 NSCLC
[11] = tested on: CAKI-1 renal
[12] = tested on: HS 578T breast
[13] = tested on: T-47D breast
[14] = tested on: A498 renal
[15] = tested on: SN12C renal
[16] = tested on: SNB-19 CNS
[17] = tested on: MDA-MB-231 breast
[18] = tested on: SK-MEL-28 melanoma
[19] = tested on: U251 CNS
[20] = tested on: TK-10 renal
[21] = tested on: EKVX NSCLC
[22] = tested on: NCI/ADR-RES ovarian
[23] = tested on: UACC-62 melanoma
[24] = tested on: HCT-116 colon
[25] = tested on: MDA-MB-435
[26] = tested on: SNB-75 CNS
[27] = tested on: MCF7 breast
[28] = tested on: K-562 leukemia
[29] = tested on: ACHN renal
[30] = tested on: MALME-3M melanoma
[31] = tested on: HL-60(TB) leukemia
[32] = tested on: SK-OV-3 ovarian
[33] = tested on: OVCAR-8 ovarian
[34] = tested on: NCI-H460 lung
[35] = tested on: OVCAR-5 ovarian
[36] = tested on: A549 NSCLC
[37] = tested on: UO-31 renal
[38] = tested on: DU-145 prostate
[39] = tested on: NCI-H226 lung
[40] = tested on: UACC-257 melanoma
[41] = tested on: COLO 205 colon
[42] = tested on: HCT-15 colon
[43] = tested on: 786-0 renal
[44] = tested on: SK-MEL-2 melanoma
[45] = tested on: NCI-H23 lung
[46] = tested on: RXF 393 renal
[47] = tested on: SF-268 CNS
[48] = tested on: CCRF-CEM leukemia
[49] = tested on: MOLT-4 leukemia
[50] = tested on: M14 melanoma
[51] = tested on: OVCAR-4 ovarian
[52] = tested on: IGROV1 ovarian
[53] = tested on: NCI-H522 lung
[54] = tested on: SW-620 colon
[55] = tested on: SK-MEL-5 melanoma
[56] = tested on: PC-3 prostate
[57] = tested on: HT29 colon
[58] = tested on: SF-539 CNS
[59] = tested on: OVCAR-3 ovarian

Measured: TGI

Clc1ccccc1-c1nc2ccc(C34CC5CC(CC(C5)C3)C4)cc2[nH]1
89.9 µM: [12]
36.4 µM: [45]
70 µM: [14]
37.9 µM: [17] | [57]
28.1 µM: [37]
32 µM: [6]
43.1 µM: [53]
54 µM: [35]
> 100 µM: [1] | [2] | [3] | [8] | [11] | [18] | [21] | [22] | [24] | [25] | [28] | [31] | [34] | [38] | [39] | [40] | [41] | [42] | [47] | [48] | [49] | [51] | [54] | [55]
20.8 µM: [46]
22.8 µM: [33]
40.8 µM: [44]
88.5 µM: [15]
64.6 µM: [20]
42.9 µM: [32]
27.1 µM: [10] | [23]
23.4 µM: [27] | [36]
70.7 µM: [50]
98.5 µM: [30]
40.5 µM: [9]
28.8 µM: [29]
21.6 µM: [16] | [26]
25.9 µM: [43]
34 µM: [56]
27.8 µM: [13]
34.9 µM: [7]
29.8 µM: [4]
50.4 µM: [52]
20.5 µM: [19]
43.5 µM: [5]

Cc1nc(-c2cc3c(ccc4ccccc43)oc2=O)cs1
57.8 µM: [5]
> 100 µM: [1] | [2] | [3] | [4] | [6] | [7] | [8] | [9] | [11] | [13] | [15] | [16] | [17] | [18] | [19] | [20] | [21] | [22] | [23] | [24] | [25] | [27] | [28] | [29] | [30] | [31] | [32] | [33] | [34] | [35] | [36] | [37] | [38] | [39] | [40] | [41] | [42] | [43] | [44] | [58] | [46] | [47] | [48] | [49] | [50] | [51] | [52] | [53] | [54] | [55] | [56] | [57]
75.2 µM: [26]
99.3 µM: [12]
89.5 µM: [10]

N#Cc1c(=O)n(-c2ccccc2)c(O)c2c(N)n[nH]c12
> 100 µM: [1] | [2] | [3] | [4] | [5] | [8] | [9] | [10] | [11] | [12] | [13] | [14] | [15] | [16] | [17] | [18] | [19] | [20] | [21] | [22] | [23] | [24] | [25] | [26] | [27] | [28] | [30] | [59] | [31] | [32] | [33] | [34] | [35] | [36] | [37] | [38] | [39] | [40] | [41] | [42] | [43] | [44] | [45] | [58] | [46] | [47] | [49] | [50] | [51] | [52] | [53] | [54] | [55] | [56] | [57]

COc1cc(/C=N\N(C)C)cc(/C=N/N(C)C)c1O
56 µM: [30]
> 100 µM: [3] | [7] | [8] | [14] | [16] | [20] | [22] | [23] | [24] | [25] | [27] | [31] | [34] | [36] | [38] | [42] | [45] | [46] | [47] | [51] | [53] | [54] | [55]
8.9 µM: [6]
83.9 µM: [50]
72.4 µM: [48]
61.8 µM: [10]
61.9 µM: [5]
87.9 µM: [29]
98.5 µM: [40]
50.6 µM: [39]
37.1 µM: [58]
50.2 µM: [1]
48 µM: [57]
53.4 µM: [59]
46.9 µM: [41]
55.4 µM: [32]
52.1 µM: [11]
32.3 µM: [9]
79.5 µM: [37]
28.1 µM: [44]
59.7 µM: [18]
74.1 µM: [43]
74.8 µM: [19]
96.2 µM: [56]
58.7 µM: [4]
80 µM: [17]
20.9 µM: [12]
52.7 µM: [15]
15.2 µM: [13]
